This note sets out measurements from US20060166996A1, “Phthalazine derivatives as phosphodiesterase 4 inhibitors” (Zambon Group S.P.A., priority 2002, published 2006).

≈ marks a conversion by molar mass, not a printed value. A value given as a limit tells only on which side of the number the result lay.

A word on the solubility (kinetic): it is solubility judged after dilution from a stock solution rather than from solid. The term IC50 denotes the concentration that inhibits the measured activity by half.

Data set [1] in a line: Solubility test by HPLC in PBS pH 7.4. Particulars: for solubility kinetic: PBS (phosphate buffer saline), aqueous buffer, kinetic from dmso stock. Format: physicochemical. The procedure: HPLC method used to test the solubility.
Solubility test was performed by HPLC analysis (column 4.6×15 mm) water/0.1% TFA —CH3CN/0.06% TFA gradient) against standard.
A […] solution of the substance dissolved in DMSO was prepared.
In order to prepare the sample 190 μl of PBS (Phosphate Buffer Saline, pH 7.4) were added to 10 μl of the above solution; instead (while) in order to prepare the standard 190 μl of DMSO to other 10 μl of solution were added.

A further data set deals with T1, PDE 4 enzyme.
T1 construct: % at 10^−7; other: at 10^−7; PDE 4 from U937 cell line; other: PDE 4 isolated from U937 cell line; SPA with 3H-cAMP
The data set is described as follows: PDE 4 enzyme inhibition (SPA). Format: biochemical. Particulars: for % at 10^−7: PDE 4 from U937 cell line. The procedure: a) PDE 4 Enzyme Purification
PDE 4 enzyme was isolated from U937 cell line according to the method of Nielson et al. (J. Allergy Clin. Immunol. 1990, vol. 86, pages 801-807) partially modified for the FPLC technique (Fast Protein Liquid Chromatography).
U-937cell line (Istituto Zooprofilattico Sperimentale, Brescia, Italy) was maintained in RPMI 1640, with 10% foetal calf serum and 2 mM glutamine, at a cell density between 1×10^6 and 8×10^6 cells per ml in an incubator at 37° C. with 5% CO2.
U937 suspension was homogenised in a buffer containing 10 mM TRIS (tri-(hydroxymethyl)-aminomethane), 5 mM MgCl2, 4 mM EGTA (ethyleneglycol-bis-(β-aminoethylether)-N,N,N′N′-tetra-acetic acid), 5 mM […]-mercaptoethanol, 1 μM leupeptin, 1 μM pepstatin, 1% TRITON x-100, and 100 μM phenylmethyl sulfonyl fluoride (PMSF) at pH 7.8.
The homogenate was centrifuged and the supernatant was used for the purification of the PDE 4 enzyme; it was seeded on a column connected to a biologic chromatography system (FPLC, BIO RAD).
PDE 4 enzyme was eluted with a linear gradient, from 0.05 M to 1 M of sodium acetate, and elution fractions were collected for PDE4 activity assay.
The fractions containing PDE4 activity were collected and, after an overnight dialysis against water to remove sodium acetate, were concentrated to 30% volume with an Amicon filtration system (using YM10 membrane filter).
Ethylene glycol (30% v/v) was added and the sample was stored at −20° C. in a single aliquot until the use.
PDE 4 activity assay was performed using Scintillation Proximity Assay (SPA) Amershan kit consisting of tracer ^3H-cAMP, PDE assay buffer (10×solution: 500 mM TRIS/HCl pH 7.5, 83 mM MgCl2 and 17 mM EGTA) and Yttrium SPA PDE beads (containing 18 mM zinc sulphate).
The radioactivity of the beads was measured using a scintillation counter (Packard model MINAXI β TRI-CARB 4000 SERIES).
The IC50 values were calculated from concentration-inhibition curves by non linear regression analysis using the program ORIGIN 3.5 (MICROCAL SOFTWARE INC.) and each fitting was the mean±SEM of 3 experiments using different PDE 4 preparations.

The mark [2] stands for this setting: PBS pH 7.4, HPLC against standard, compounds of formula I.
[3] abbreviates: PBS pH 7.4, HPLC, compounds of WO 00/05218.

On to `COc1ccc2c(Cc3c(Cl)cncc3Cl)nnc(-c3cc(C(=O)O)ccc3OC)c2c1` [Compound 5, 3-[4-(3,5-dichloro-pyridin-4-ylmethyl)-7-methoxy-phthalazin-1-yl]-4-methoxy-benzoic Acid], for which, in data set [1] (setting [2]), the kinetic solubility is 230 µg/mL (≈ 489 µM) and the “Sol.” value is 489.36 µM. The IC50 on PDE 4 enzyme (PDE 4 isolated from U937 cell line, SPA with 3H-cAMP) worked out at 91.3 nM.

Consider `COc1ccc2c(Cc3c(Cl)cncc3Cl)nnc(-c3ccc(C(=O)O)cc3)c2c1` [Compound 1, 4-[4-(3,5-dichloro-pyridin-4-ylmethyl)-7-methoxy-phthalazin-1-yl]-benzoic Acid], for which, in data set [1] (setting [2]), the kinetic solubility came out at 218 µg/mL (≈ 495 µM) and the “Sol.” value was determined as 495.45 µM. Moreover, the “% at 10^−7” value with PDE 4 enzyme is reported as 25% at 10^−7.

Regarding `COc1ccc2c(Cc3c(Cl)cncc3Cl)nnc(-c3cc(C(=O)O)cc([N+](=O)[O-])c3)c2c1` [Compound 3, 3-[4-(3,5-dichloro-pyridin-4-ylmethyl)-7-methoxy-phthalazin-1-yl]-5-nitro-benzoic Acid], in data set [1] (setting [2]), the kinetic solubility came out at 298 µg/mL (≈ 614 µM) and the “Sol.” value was 614.43 µM. For the same compound, in the data set on PDE 4 enzyme, the “% at 10^−7” value amounted to 47% at 10^−7.

For the compound `COc1cc(C(=O)O)cc(-c2nnc(Cc3c(Cl)cncc3Cl)c3ccc(OC)cc23)c1` [Compound 7, 3-[4-(3,5-dichloro-pyridin-4-ylmethyl)-7-methoxy-phthalazin-1-yl]-5-methoxy-benzoic Acid], in data set [1] (setting [2]), the solubility (kinetic) came to 235 µg/mL (≈ 500 µM) and the “Sol.” value is 500.00 µM.

As to “3-[4-(3,5-dichloro-pyridin-4-ylmethyl)-7-methoxy-phthalazin-1-yl]-5-methanesulfonylamino-benzoic Acid [Compound 6]”, the “Sol.” value in data set [1] (setting [3]) is below 1 µM.

In the case of `COc1ccc2c(Cc3c(Cl)cncc3Cl)nnc(-c3cc(NS(C)(=O)=O)cc(C(=O)O)c3)c2c1` [Compound 6, 3-[4-(3,5-dichloro-pyridin-4-ylmethyl)-7-methoxy-phthalazin-1-yl]-5-methanesulfonylamino-benzoic Acid], in data set [1] (setting [2]), the solubility (kinetic) was 271 µg/mL (≈ 508 µM) and the “Sol.” value is 508.44 µM.

With `COc1ccc2c(Cc3c(Cl)cncc3Cl)nnc(-c3ccc(OC)c(C(=O)O)c3)c2c1` [Compound 4, 5-[4-(3,5-dichloro-pyridin-4-ylmethyl)-7-methoxy-phthalazin-1-yl]-2-methoxy-benzoic Acid], in data set [1] (setting [2]), the kinetic solubility worked out at 226 µg/mL (≈ 481 µM) and the “Sol.” value is 480.85 µM.

Take `COc1ccc2c(Cc3c(Cl)cncc3Cl)nnc(-c3nc(C(=O)O)co3)c2c1` [Compound 9, 2-[4-(3,5-dichloro-pyridin-4-ylmethyl)-7-methoxy-phthalazin-1-yl]-oxazole-4-carboxylic Acid]: in data set [1] (setting [2]), the kinetic solubility is 202 µg/mL (≈ 468 µM) and the “Sol.” value was determined as 468.68 µM. The “% at 10^−7” value in the data set with PDE 4 enzyme is given as 14% at 10^−7.

As to “5-[4-(3,5-dichloro-pyridin-4-ylmethyl)-7-methoxy-phthalazin-1-yl]-2-methoxy-benzoic Acid [Compound 4]”, the “Sol.” value in data set [1] (setting [3]) was found to be 37 µM.
